MIC data for 15 molecules are collected here from ChEMBL document CHEMBL1147103, “First identification of Pseudomonas aeruginosa isolates producing a KPC-type carbapenem-hydrolyzing beta-lactamase” (2007).

≈ marks a conversion by molar mass, not a printed value.

The test system of one assay is Pseudomonas aeruginosa. The assay can be described thus: Antimicrobial susceptibility of carbapenem-resistant Pseudomonas aeruginosa PA4036 isolate expressing carbapenemase KPC2. It counts as functional.
Consider `C[C@H]1[C@H](NC(=O)/C(=N\OC(C)(C)C(=O)O)c2csc(N)n2)C(=O)N1S(=O)(=O)O` [AZTREONAM], for which the MIC was over 256 µg/mL.
Same read-out and setting: the same measure for `CC(C)(O/N=C(\C(=O)N[C@@H]1C(=O)N2C(C(=O)[O-])=C(C[n+]3ccccc3)CS[C@H]12)c1csc(N)n1)C(=O)O` [CEFTAZIDIME]: 256 µg/mL (≈ 468 µM); for `CCN1CCN(C(=O)N[C@@H](C(=O)N[C@@H]2C(=O)N3[C@@H]2SC(C)(C)[C@@H]3C(=O)O)c2ccccc2)C(=O)C1=O` [PIPERACILLIN]: over 256 µg/mL.
For the molecule `CC(O)[C@H]1C(=O)N2C(C(=O)O)=C(SCCNC=N)C[C@H]12` (single isomer, unassigned) [IMIPENEM ANHYDROUS], the MIC was over 256 µg/mL.
Molecule `CN(C)c1cc(NC(=O)CNC(C)(C)C)c(O)c2c1C[C@H]1C[C@H]3[C@H](N(C)C)C(O)=C(C(N)=O)C(=O)[C@@]3(O)C(O)=C1C2=O` [TIGECYCLINE] gave an MIC of 16 µg/mL (≈ 27.3 µM).
On the same count and under the same terms, under COLISTIN stands 1 µg/mL; under `CC1(C)S[C@@H]2[C@H](NC(=O)[C@H](N)c3ccccc3)C(=O)N2[C@H]1C(=O)O` [AMPICILLIN], over 256 µg/mL.
The same measure, in the same setting: under `CO/N=C(\C(=O)N[C@@H]1C(=O)N2C(C(=O)[O-])=C(C[N+]3(C)CCCC3)CS[C@H]12)c1csc(N)n1` [CEFEPIME] stands over 256 µg/mL; under `C[C@@H](O)[C@H]1C(=O)N2C(C(=O)O)=C(S[C@@H]3CN[C@H](C(=O)Nc4cccc(C(=O)O)c4)C3)[C@H](C)[C@H]12` [ERTAPENEM], over 256 µg/mL.
The molecule `CO/N=C(\C(=O)N[C@@H]1C(=O)N2C(C(=O)O)=C(COC(C)=O)CS[C@H]12)c1csc(N)n1` (stereo in doubt) [CEFOTAXIME] showed an MIC of over 256 µg/mL.
`NC[C@H]1O[C@H](O[C@H]2[C@H](O)[C@@H](O[C@H]3O[C@H](CO)[C@@H](O)[C@H](N)[C@H]3O)[C@H](N)C[C@@H]2N)[C@H](N)C[C@@H]1O` [TOBRAMYCIN] returned a minimal inhibitory concentration (MIC) of over 128 µg/mL.
Same read-out and setting: under GENTAMICIN stands over 128 µg/mL.
The same measure, in the same setting: under `CO/N=C(\C(=O)N[C@@H]1C(=O)N2C(C(=O)O)=C(CSc3nc(=O)c(O)nn3C)CS[C@H]12)c1csc(N)n1` [CEFTRIAXONE] stands over 256 µg/mL; under `C[C@@H](O)[C@H]1C(=O)N2C(C(=O)O)=C(S[C@@H]3CN[C@H](C(=O)N(C)C)C3)[C@H](C)[C@H]12` [MEROPENEM], over 256 µg/mL.
For the molecule `NCC[C@H](O)C(=O)N[C@@H]1C[C@H](N)[C@@H](O[C@H]2O[C@H](CN)[C@@H](O)[C@H](O)[C@H]2O)[C@H](O)[C@H]1O[C@H]1O[C@H](CO)[C@@H](O)[C@H](N)[C@H]1O` [AMIKACIN], the MIC worked out at 16 µg/mL (≈ 27.3 µM).

Another assay has as its system Pseudomonas aeruginosa. Nature of the assay: Antimicrobial susceptibility of carbapenem-resistant Pseudomonas aeruginosa PA2404 isolate expressing carbapenemase KPC2. It is filed as functional.
As for `C[C@H]1[C@H](NC(=O)/C(=N\OC(C)(C)C(=O)O)c2csc(N)n2)C(=O)N1S(=O)(=O)O` [AZTREONAM], the minimal inhibitory concentration (MIC) was over 256 µg/mL.
Regarding `CC(C)(O/N=C(\C(=O)N[C@@H]1C(=O)N2C(C(=O)[O-])=C(C[n+]3ccccc3)CS[C@H]12)c1csc(N)n1)C(=O)O` [CEFTAZIDIME], the MIC is 256 µg/mL (≈ 468 µM).
Same read-out and setting: the same measure for `CCN1CCN(C(=O)N[C@@H](C(=O)N[C@@H]2C(=O)N3[C@@H]2SC(C)(C)[C@@H]3C(=O)O)c2ccccc2)C(=O)C1=O` [PIPERACILLIN]: over 256 µg/mL; for `CC(O)[C@H]1C(=O)N2C(C(=O)O)=C(SCCNC=N)C[C@H]12` (single isomer, unassigned) [IMIPENEM ANHYDROUS]: 256 µg/mL (≈ 855 µM); for `CN(C)c1cc(NC(=O)CNC(C)(C)C)c(O)c2c1C[C@H]1C[C@H]3[C@H](N(C)C)C(O)=C(C(N)=O)C(=O)[C@@]3(O)C(O)=C1C2=O` [TIGECYCLINE]: 16 µg/mL (≈ 27.3 µM).
On the same count and under the same terms, under COLISTIN stands 1 µg/mL; under `CC1(C)S[C@@H]2[C@H](NC(=O)[C@H](N)c3ccccc3)C(=O)N2[C@H]1C(=O)O` [AMPICILLIN], over 256 µg/mL.
The same measure, in the same setting: under `CO/N=C(\C(=O)N[C@@H]1C(=O)N2C(C(=O)[O-])=C(C[N+]3(C)CCCC3)CS[C@H]12)c1csc(N)n1` [CEFEPIME] stands over 256 µg/mL; under `C[C@@H](O)[C@H]1C(=O)N2C(C(=O)O)=C(S[C@@H]3CN[C@H](C(=O)Nc4cccc(C(=O)O)c4)C3)[C@H](C)[C@H]12` [ERTAPENEM], over 256 µg/mL.
Take `CO/N=C(\C(=O)N[C@@H]1C(=O)N2C(C(=O)O)=C(COC(C)=O)CS[C@H]12)c1csc(N)n1` (stereo in doubt) [CEFOTAXIME]: the MIC is over 256 µg/mL.
Same read-out and setting: under `NC[C@H]1O[C@H](O[C@H]2[C@H](O)[C@@H](O[C@H]3O[C@H](CO)[C@@H](O)[C@H](N)[C@H]3O)[C@H](N)C[C@@H]2N)[C@H](N)C[C@@H]1O` [TOBRAMYCIN] stands over 128 µg/mL; under GENTAMICIN, over 128 µg/mL; under `CO/N=C(\C(=O)N[C@@H]1C(=O)N2C(C(=O)O)=C(CSc3nc(=O)c(O)nn3C)CS[C@H]12)c1csc(N)n1` [CEFTRIAXONE], over 256 µg/mL.
On the same count and under the same terms, under `C[C@@H](O)[C@H]1C(=O)N2C(C(=O)O)=C(S[C@@H]3CN[C@H](C(=O)N(C)C)C3)[C@H](C)[C@H]12` [MEROPENEM] stands over 256 µg/mL; under `NCC[C@H](O)C(=O)N[C@@H]1C[C@H](N)[C@@H](O[C@H]2O[C@H](CN)[C@@H](O)[C@H](O)[C@H]2O)[C@H](O)[C@H]1O[C@H]1O[C@H](CO)[C@@H](O)[C@H](N)[C@H]1O` [AMIKACIN], 16 µg/mL (≈ 27.3 µM).

For the next assay, the system named is Pseudomonas aeruginosa. Nature of the assay: Antimicrobial susceptibility of carbapenem-resistant Pseudomonas aeruginosa PA4012 isolate expressing carbapenemase KPC2. It counts as functional.
Molecule `C[C@H]1[C@H](NC(=O)/C(=N\OC(C)(C)C(=O)O)c2csc(N)n2)C(=O)N1S(=O)(=O)O` [AZTREONAM] returned an MIC of over 256 µg/mL.
The same measure, in the same setting: the same measure for `CC(C)(O/N=C(\C(=O)N[C@@H]1C(=O)N2C(C(=O)[O-])=C(C[n+]3ccccc3)CS[C@H]12)c1csc(N)n1)C(=O)O` [CEFTAZIDIME]: 256 µg/mL (≈ 468 µM); for `CCN1CCN(C(=O)N[C@@H](C(=O)N[C@@H]2C(=O)N3[C@@H]2SC(C)(C)[C@@H]3C(=O)O)c2ccccc2)C(=O)C1=O` [PIPERACILLIN]: over 256 µg/mL.
The same measure, in the same setting: under `CC(O)[C@H]1C(=O)N2C(C(=O)O)=C(SCCNC=N)C[C@H]12` (single isomer, unassigned) [IMIPENEM ANHYDROUS] stands over 256 µg/mL; under `CN(C)c1cc(NC(=O)CNC(C)(C)C)c(O)c2c1C[C@H]1C[C@H]3[C@H](N(C)C)C(O)=C(C(N)=O)C(=O)[C@@]3(O)C(O)=C1C2=O` [TIGECYCLINE], 16 µg/mL (≈ 27.3 µM); under COLISTIN, 2 µg/mL.
On the same count and under the same terms, the same measure for `CC1(C)S[C@@H]2[C@H](NC(=O)[C@H](N)c3ccccc3)C(=O)N2[C@H]1C(=O)O` [AMPICILLIN]: over 256 µg/mL.
Molecule `CO/N=C(\C(=O)N[C@@H]1C(=O)N2C(C(=O)[O-])=C(C[N+]3(C)CCCC3)CS[C@H]12)c1csc(N)n1` [CEFEPIME] yielded an MIC of over 256 µg/mL.
With `C[C@@H](O)[C@H]1C(=O)N2C(C(=O)O)=C(S[C@@H]3CN[C@H](C(=O)Nc4cccc(C(=O)O)c4)C3)[C@H](C)[C@H]12` [ERTAPENEM], the MIC was 256 µg/mL (≈ 538 µM).
On the same count and under the same terms, under `CO/N=C(\C(=O)N[C@@H]1C(=O)N2C(C(=O)O)=C(COC(C)=O)CS[C@H]12)c1csc(N)n1` (stereo in doubt) [CEFOTAXIME] stands over 256 µg/mL; under `NC[C@H]1O[C@H](O[C@H]2[C@H](O)[C@@H](O[C@H]3O[C@H](CO)[C@@H](O)[C@H](N)[C@H]3O)[C@H](N)C[C@@H]2N)[C@H](N)C[C@@H]1O` [TOBRAMYCIN], over 128 µg/mL.
The same measure, in the same setting: the same measure for GENTAMICIN: over 128 µg/mL.
On the same count and under the same terms, under `CO/N=C(\C(=O)N[C@@H]1C(=O)N2C(C(=O)O)=C(CSc3nc(=O)c(O)nn3C)CS[C@H]12)c1csc(N)n1` [CEFTRIAXONE] stands over 256 µg/mL.
`C[C@@H](O)[C@H]1C(=O)N2C(C(=O)O)=C(S[C@@H]3CN[C@H](C(=O)N(C)C)C3)[C@H](C)[C@H]12` [MEROPENEM] gave an MIC of over 256 µg/mL.
The same measure, in the same setting: under `NCC[C@H](O)C(=O)N[C@@H]1C[C@H](N)[C@@H](O[C@H]2O[C@H](CN)[C@@H](O)[C@H](O)[C@H]2O)[C@H](O)[C@H]1O[C@H]1O[C@H](CO)[C@@H](O)[C@H](N)[C@H]1O` [AMIKACIN] stands 16 µg/mL (≈ 27.3 µM).

In another assay the test system is Citrobacter freundii. The assay can be described thus: Antimicrobial susceptibility of Citrobacter freundii CF6010 isolate expressing carbapenemase KPC2. It is filed as functional.
The molecule `C[C@H]1[C@H](NC(=O)/C(=N\OC(C)(C)C(=O)O)c2csc(N)n2)C(=O)N1S(=O)(=O)O` [AZTREONAM] displayed an MIC of 128 µg/mL (≈ 294 µM).
The same measure, in the same setting: under `CC(C)(O/N=C(\C(=O)N[C@@H]1C(=O)N2C(C(=O)[O-])=C(C[n+]3ccccc3)CS[C@H]12)c1csc(N)n1)C(=O)O` [CEFTAZIDIME] stands 32 µg/mL (≈ 58.5 µM).
On the same count and under the same terms, under `CCN1CCN(C(=O)N[C@@H](C(=O)N[C@@H]2C(=O)N3[C@@H]2SC(C)(C)[C@@H]3C(=O)O)c2ccccc2)C(=O)C1=O` [PIPERACILLIN] stands over 256 µg/mL; under `CC(O)[C@H]1C(=O)N2C(C(=O)O)=C(SCCNC=N)C[C@H]12` (single isomer, unassigned) [IMIPENEM ANHYDROUS], 8 µg/mL (≈ 26.7 µM).
Take `CN(C)c1cc(NC(=O)CNC(C)(C)C)c(O)c2c1C[C@H]1C[C@H]3[C@H](N(C)C)C(O)=C(C(N)=O)C(=O)[C@@]3(O)C(O)=C1C2=O` [TIGECYCLINE]: the MIC turned out to be 0.5 µg/mL (≈ 0.854 µM).
Same read-out and setting: the same measure for COLISTIN: 0.5 µg/mL; for `CC1(C)S[C@@H]2[C@H](NC(=O)[C@H](N)c3ccccc3)C(=O)N2[C@H]1C(=O)O` [AMPICILLIN]: over 256 µg/mL; for `CO/N=C(\C(=O)N[C@@H]1C(=O)N2C(C(=O)[O-])=C(C[N+]3(C)CCCC3)CS[C@H]12)c1csc(N)n1` [CEFEPIME]: 8 µg/mL (≈ 16.6 µM).
Still for that read-out and setting: the same measure for `C[C@@H](O)[C@H]1C(=O)N2C(C(=O)O)=C(S[C@@H]3CN[C@H](C(=O)Nc4cccc(C(=O)O)c4)C3)[C@H](C)[C@H]12` [ERTAPENEM]: 16 µg/mL (≈ 33.6 µM).
On the same count and under the same terms, the same measure for `CO/N=C(\C(=O)N[C@@H]1C(=O)N2C(C(=O)O)=C(COC(C)=O)CS[C@H]12)c1csc(N)n1` (stereo in doubt) [CEFOTAXIME]: 32 µg/mL (≈ 70.3 µM); for `NC[C@H]1O[C@H](O[C@H]2[C@H](O)[C@@H](O[C@H]3O[C@H](CO)[C@@H](O)[C@H](N)[C@H]3O)[C@H](N)C[C@@H]2N)[C@H](N)C[C@@H]1O` [TOBRAMYCIN]: 64 µg/mL (≈ 137 µM).
For GENTAMICIN, the MIC was over 128 µg/mL.
The same measure, in the same setting: the same measure for `CO/N=C(\C(=O)N[C@@H]1C(=O)N2C(C(=O)O)=C(CSc3nc(=O)c(O)nn3C)CS[C@H]12)c1csc(N)n1` [CEFTRIAXONE]: 256 µg/mL (≈ 462 µM); for `C[C@@H](O)[C@H]1C(=O)N2C(C(=O)O)=C(S[C@@H]3CN[C@H](C(=O)N(C)C)C3)[C@H](C)[C@H]12` [MEROPENEM]: 8 µg/mL (≈ 20.9 µM); for `NCC[C@H](O)C(=O)N[C@@H]1C[C@H](N)[C@@H](O[C@H]2O[C@H](CN)[C@@H](O)[C@H](O)[C@H]2O)[C@H](O)[C@H]1O[C@H]1O[C@H](CO)[C@@H](O)[C@H](N)[C@H]1O` [AMIKACIN]: 2 µg/mL (≈ 3.42 µM).

Usually MIC stands for the lowest concentration found to suppress growth.
